Results taken from patent publication US7465729B2, “Methods of treatment of menopause and perimenopause using eszopiclone” (Sepracor Inc., priority 2004, dated 2008).

How the values were obtained:
[1] = in vivo; cited from earlier work
plasma proteins = settings: cited from earlier work
[2] = tested on: benzodiazepine receptor complex; settings: cited from earlier work
conscious dogs = assay: Dose escalation safety study, cardiovascular and respiratory parameters; settings: acute intravenous, 3, 5 and 12 mg/kg
Procedure: To establish the safety of eszopiclone, a dose escalation study was carried out. Cardiovascular and respiratory parameters were evaluated in conscious dogs following acute intravenous administration of (R)-, (S)- or racemic zopiclone at three doses (3, 5 and 12 mg/kg).

mice [3] = assay: Antimuscarinic activity in vivo: mydriasis; settings: any dose tested, maximum dose 100 mg/kg, p.o.
Procedure: (§1) Eszopiclone was evaluated for antimuscarinic activity in vivo.

mice [4] = assay: Antimuscarinic activity in vivo: oxotremorine induced salivation; settings: doses up to 300 mg/kg, p.o.
Procedure: as §1

CN1CCN(C(=O)OC2c3nccnc3C(=O)N2c2ccc(Cl)cn2)CC1 (racemic) [racemic zopiclone]
absorption from the stomach [1]: well absorbed | binding to plasma proteins (plasma proteins): not highly bound | binding to the benzodiazepine receptor complex [2]: binds to the benzodiazepine receptor complex, or to a site linked closely to this receptor complex | cardiotoxicity, as evidenced by the electrocardiogram (ECG) (conscious dogs): No evidence of cardiotoxicity | effect on blood pressure (conscious dogs): dose dependent, transient decreases in blood pressure | effect on heart rate (conscious dogs): compensatory increase in heart rate | Blood gases and blood chemistries (pH, pCO2, pO2, hematocrit, and lactate) (conscious dogs; all dose groups): remained unaffected | mydriasis (mice [3]): did not produce mydriasis | antagonism of oxotremorine induced salivation (mice [4]): neither (R)-, (S)-, nor racemic zopiclone significantly antagonized oxotremorine induced salivation
